{
  "source": "patent US20220395522A1",
  "about": "“Methods of Use of Glucosamine for Increasing Nitrogen Retention” (TSI Bioproducts (Xuzhou) Co., Ltd., priority 2021, published 2022)",
  "type_in_all_cases": "in vivo, human",
  "key": {"fecal microbiota": {"system": "fecal microbiota", "experiment": "Fecal microbiota analysis (16S rRNA), alpha and beta diversity", "description": "(§1) To determine significant differences between bacterial alpha diversity metrics (the measure of microbiome diversity within a single sample), a paired t-test was used between alpha diversity values of different sample groups (p<0.05). Significant differences in beta diversity (the measure of similarity or dissimilarity of multiple samples) between groups was determined using the qiime diversity beta-group-significance command in QIIME2 as well, which performs pairwise Permutational Multivariate Analysis of Variance (PERMANOVA) tests on beta diversity distance matrices (p<0.05). Differential abundance of taxa between sample groups were evaluated using Multivariate Analysis by Linear Models (MaAsLin) in R version 4.0.2 using the Maaslin2 command in the Maaslin2 R library on rarified taxonomy data generated by QIIME2 (p<0.05). Additional evaluation of differential abundance of taxa was performed using Analysis of Composition of Microbiomes (ANCOM) using the qiime composition ancom command after collapsing the feature table to the family level (level 5) using the qiime taxa collapse command on QIIME2. Data visualization was performed using the ggplot2 package, with data frame manipulation commands from the dplyr package, within the tidyverse collection of R packages.\nStool specimens were collected at four time points throughout the entire study protocol. The first two samples were collected before and after the first supplementation period while the final two samples were collected before and after the second supplementation period. All stool specimens were collected no more than 24-hours prior to that study participant being scheduled to complete their laboratory visit. All samples were immediately frozen after sample collection by the study participants. […]\nA fecal microbiota analysis was further conducted. […] The Qubit Fluorometer (Thermo Fisher Scientific, San Francisco, Calif.) was used to quantify PCR product concentrations prior to combining the PCR products in equal quantities for purification with the Wizard SV Gel and PCR Cleanup kit (Promega, Madison, Wis.). […]"}, "Bacillaceae": {"system": "Bacillaceae", "experiment": "Fecal microbiota analysis, differential abundance of taxa (MaAsLin)", "details": "after GLU intake compared to baseline (GLU (Pre)), p=0.038", "description": "as §1, with “Additional evaluation of differential abundance of taxa was performed using Analysis of Composition of Microbiomes (ANCOM) using the qiime composition ancom command after collapsing the feature table to the family level (level 5) using the qiime taxa collapse command on QIIME2. Data visualization was performed using the ggplot2 package, with data frame manipulation commands from the dplyr package, within the tidyverse collection of R packages.” left out\n(§2) A fecal microbiota analysis was further conducted. […] The Qubit Fluorometer (Thermo Fisher Scientific, San Francisco, Calif.) was used to quantify PCR product concentrations prior to combining the PCR products in equal quantities for purification with the Wizard SV Gel and PCR Cleanup kit (Promega, Madison, Wis.). […] Library purity and concentration was measured on a 2100 Bioanalyzer System (Agilent Technologies, Santa Clara, Calif.). […]\n(§3) Ion Torrent BAM files of raw DNA sequencing data were converted to the FASTQ format using BEDTools and then analyzed using Quantitative Insights into Microbiology (QIIME2) version 2019.10. Reads shorter than 200 bp in length were removed. […] Multiple sequence Alignment using Fast Fourier Transform (MAFFT) was used for read alignment, while gapped and unconserved alignments were filtered using the alignment mask plugin. […] Sequences of mitochondria and chloroplast origin were filtered from downstream analysis, leaving a total of 1,391,259 total high-quality reads associated with taxonomic annotations. Samples were rarified to 7,874 reads for alpha and beta diversity analysis. […]"}, "Pseudomonadaceae": {"system": "Pseudomonadaceae", "experiment": "Fecal microbiota analysis, differential abundance of taxa (MaAsLin)", "details": "after GLU intake compared to baseline (GLU (Pre)), p=0.014", "description": "as §1, with “Additional evaluation of differential abundance of taxa was performed using Analysis of Composition of Microbiomes (ANCOM) using the qiime composition ancom command after collapsing the feature table to the family level (level 5) using the qiime taxa collapse command on QIIME2. Data visualization was performed using the ggplot2 package, with data frame manipulation commands from the dplyr package, within the tidyverse collection of R packages.” left out\nas §2, §3"}, "Peptococcaceae": {"system": "Peptococcaceae", "experiment": "Fecal microbiota analysis, differential abundance of taxa (MaAsLin)", "details": "after GLU intake compared to baseline (GLU (Pre)), p=0.021", "description": "as §1, with “Additional evaluation of differential abundance of taxa was performed using Analysis of Composition of Microbiomes (ANCOM) using the qiime composition ancom command after collapsing the feature table to the family level (level 5) using the qiime taxa collapse command on QIIME2. Data visualization was performed using the ggplot2 package, with data frame manipulation commands from the dplyr package, within the tidyverse collection of R packages.” left out\nas §2, §3"}},
  "data": [
    {"compound": "Cl.N[C@H]1C(O)O[C@H](CO)[C@@H](O)[C@@H]1O", "note": "(stereo partly drawn) [GLU, glucosamine hydrochloride]", "values": [
      {"measurement": "Other alpha diversity measures (Observed OTUs or Shannon Evenness)", "setting": "fecal microbiota; Post vs Pre, paired t-test p>0.05", "value": "not significantly altered"},
      {"measurement": "Changes in beta-diversity (unweighted Unifrac distances)", "setting": "fecal microbiota; compared to baseline, PERMANOVA p>0.05", "value": "not significantly different"},
      {"measurement": "Alpha diversity of fecal bacterial communities, Faith's Phylogenetic Diversity (PD)", "setting": "fecal microbiota; following GLU consumption compared to baseline, paired t-test p=4.59E-03", "value": "significantly decreased"},
      {"measurement": "Proportion of Bacillaceae", "setting": "Bacillaceae", "value": "not detected"},
      {"measurement": "Proportion of Pseudomonadaceae, Log2 FC", "setting": "Pseudomonadaceae", "value": "−1.05"},
      {"measurement": "Proportion of Peptococcaceae, Log2 FC", "setting": "Peptococcaceae", "value": "−4.52"}
    ]}
  ]
}
